Results reported in ChEMBL document CHEMBL1201862, “PubChem BioAssay data set” (2004).
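Test compounds were applied to cells in 96-well plates for 48 hours at 5 doses. The concentration for 50% growth inhibition is given as GI50.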 The source made the active and inactive calls. Rule as the data show it: active = GI50 up to about 1.1 µM and inactive = higher.

Legend:
Test in all cases: NCI tumour cell line growth inhibition, 48 h
HCT-116 = system: HCT-116
OVCAR-4 = system: OVCAR-4
OVCAR-5 = system: OVCAR-5
HOP-62 = system: HOP-62
M14 = system: M14
NCI-H460 = system: NCI-H460
CAKI-1 = system: CAKI-1
SNB-19 = system: SNB-19
OVCAR-3 = system: OVCAR-3
EKVX = system: EKVX
A498 = system: A498
SF-295 = system: SF-295
MDA-MB-231 = system: MDA-MB-231
KM12 = system: KM12
COLO 205 = system: COLO 205
SK-MEL-2 = system: SK-MEL-2
UO-31 = system: UO-31
SF-268 = system: SF-268
786-0 = system: 786-0
HCC 2998 = system: HCC 2998

Measured: GI50

OCCCNCc1ccccn1
inactive: HCT-116 > 100 µM | OVCAR-4 > 100 µM | OVCAR-5 > 100 µM | HOP-62 > 100 µM | M14 > 100 µM | NCI-H460 > 100 µM | CAKI-1 > 100 µM | SNB-19 > 100 µM | OVCAR-3 > 100 µM | EKVX > 100 µM | A498 > 100 µM | SF-295 > 100 µM | MDA-MB-231 > 100 µM | KM12 > 100 µM | COLO 205 > 100 µM | SK-MEL-2 > 100 µM | UO-31 > 100 µM | SF-268 > 100 µM | 786-0 > 100 µM

COc1ccc(C=O)cc1OS(=O)(=O)C(F)(F)C(F)(F)C(F)(F)C(F)(F)F
inactive: HCT-116 27.2 µM | OVCAR-4 43.8 µM | OVCAR-5 50.7 µM | HOP-62 26.6 µM | M14 28 µM | NCI-H460 27.2 µM | CAKI-1 40.3 µM | SNB-19 42.1 µM | OVCAR-3 27 µM | EKVX 33.3 µM | A498 3.72 µM | SF-295 22.1 µM | MDA-MB-231 23.6 µM | KM12 28.4 µM | COLO 205 24.5 µM | SK-MEL-2 17.1 µM | UO-31 22.8 µM | SF-268 26.5 µM | 786-0 31.6 µM

CCCCCCCc1c(Cl)nc(Cl)nc1Cl
inactive: HCT-116 2.63 µM | OVCAR-4 2.87 µM | OVCAR-5 8.85 µM | HOP-62 18.6 µM | M14 2.13 µM | NCI-H460 12.8 µM | CAKI-1 2.38 µM | SNB-19 11.2 µM | OVCAR-3 6.35 µM | HCC 2998 5.81 µM | EKVX 8.77 µM | A498 20.1 µM | SF-295 16.9 µM | MDA-MB-231 3.52 µM | KM12 11.2 µM | COLO 205 5.25 µM | UO-31 5.82 µM | SF-268 4.66 µM | 786-0 3.56 µM

O=[N+]([O-])c1cccc([N+](=O)[O-])c1S(=O)(=O)c1ccccc1
inactive: HCT-116 1.89 µM | OVCAR-5 3.66 µM | HOP-62 19.9 µM | M14 2.27 µM | NCI-H460 21.7 µM | CAKI-1 2.04 µM | SNB-19 18.3 µM | OVCAR-3 2.49 µM | EKVX 21.2 µM | A498 18.8 µM | SF-295 16.4 µM | MDA-MB-231 18.2 µM | KM12 16.1 µM | COLO 205 6.18 µM | UO-31 1.86 µM | SF-268 12.2 µM | 786-0 2.09 µM

Cc1ccc2c(c1)CC1(Cc3cccc(C)c3C1=O)C2=O (centres undefined)
inactive: HCT-116 64 µM | OVCAR-4 55.8 µM | OVCAR-5 37.3 µM | HOP-62 > 100 µM | M14 64.4 µM | NCI-H460 69.7 µM | OVCAR-3 > 100 µM | HCC 2998 > 100 µM | EKVX > 100 µM | A498 > 100 µM | SF-295 > 100 µM | MDA-MB-231 19.4 µM | COLO 205 85.3 µM | UO-31 20.9 µM | SF-268 > 100 µM | 786-0 > 100 µM

C/C(=C/CNc1ncnc2c1ncn2CCC#N)CO
inactive: HCT-116 > 100 µM | OVCAR-4 > 100 µM | OVCAR-5 > 100 µM | HOP-62 > 100 µM | M14 > 100 µM | NCI-H460 > 100 µM | CAKI-1 > 100 µM | SNB-19 > 100 µM | OVCAR-3 > 100 µM | HCC 2998 > 100 µM | EKVX > 100 µM | A498 > 100 µM | SF-295 > 100 µM | MDA-MB-231 > 100 µM | KM12 > 100 µM | COLO 205 > 100 µM | UO-31 > 100 µM | SF-268 > 100 µM | 786-0 > 100 µM

Cn1/c(=N\S(=O)(=O)c2ccccc2)[nH]c2ccccc21
inactive: HCT-116 > 100 µM | OVCAR-4 > 100 µM | OVCAR-5 > 100 µM | M14 > 100 µM | NCI-H460 > 100 µM | CAKI-1 > 100 µM | SNB-19 > 100 µM | HCC 2998 > 100 µM | EKVX > 100 µM | A498 > 100 µM | SF-295 > 100 µM | MDA-MB-231 > 100 µM | KM12 > 100 µM | COLO 205 > 100 µM | UO-31 > 100 µM | SF-268 58.6 µM | 786-0 > 100 µM

CC1(CF)SCc2nc3ccccc3n21 (centres undefined)
inactive: HCT-116 > 100 µM | OVCAR-5 > 100 µM | HOP-62 > 100 µM | M14 > 100 µM | NCI-H460 > 100 µM | CAKI-1 > 100 µM | SNB-19 > 100 µM | OVCAR-3 > 100 µM | HCC 2998 > 100 µM | EKVX > 100 µM | A498 > 100 µM | SF-295 > 100 µM | MDA-MB-231 > 100 µM | KM12 > 100 µM | COLO 205 > 100 µM | UO-31 81.1 µM | SF-268 > 100 µM | 786-0 > 100 µM

Cc1ccc(S[C@@H](C)[C@@](O)(C(N)=O)c2ccccc2)cc1
inactive: HCT-116 35.2 µM | OVCAR-4 21 µM | OVCAR-5 > 100 µM | HOP-62 23.6 µM | M14 > 100 µM | NCI-H460 85.1 µM | CAKI-1 16.6 µM | SNB-19 > 100 µM | OVCAR-3 > 100 µM | HCC 2998 > 100 µM | EKVX 13.9 µM | SF-295 18.5 µM | MDA-MB-231 19.2 µM | KM12 40.8 µM | COLO 205 34.4 µM | SK-MEL-2 39.4 µM | UO-31 15.2 µM | SF-268 > 100 µM | 786-0 72.6 µM

CN(C)c1nc2oc(-c3ccccc3)c(-c3ccccc3)c2c2nncn12
inactive: HCT-116 > 100 µM | OVCAR-4 > 100 µM | OVCAR-5 > 100 µM | M14 > 100 µM | CAKI-1 > 100 µM | SNB-19 > 100 µM | HCC 2998 > 100 µM | EKVX > 100 µM | A498 > 100 µM | SF-295 > 100 µM | MDA-MB-231 > 100 µM | KM12 > 100 µM | COLO 205 > 100 µM | UO-31 > 100 µM | SF-268 > 100 µM | 786-0 > 100 µM

C1=N/CCNCCNCC/N=C/c2ccccc2OCc2cccc(n2)COc2ccccc2/1
inactive: HCT-116 61 µM | OVCAR-4 47 µM | OVCAR-5 > 100 µM | HOP-62 35.2 µM | M14 28.7 µM | NCI-H460 34.4 µM | CAKI-1 > 100 µM | SNB-19 52.5 µM | OVCAR-3 30.1 µM | EKVX > 100 µM | A498 > 100 µM | SF-295 26.4 µM | MDA-MB-231 57.9 µM | KM12 48.5 µM | COLO 205 > 100 µM | SK-MEL-2 > 100 µM | UO-31 72.8 µM | SF-268 47.2 µM | 786-0 64.6 µM

O=C1c2cccc3cccc(c23)C2NCCCN12 (centres undefined)
inactive: HCT-116 > 100 µM | OVCAR-4 > 100 µM | OVCAR-5 > 100 µM | HOP-62 > 100 µM | M14 > 100 µM | NCI-H460 > 100 µM | CAKI-1 89.3 µM | SNB-19 > 100 µM | OVCAR-3 > 100 µM | HCC 2998 62.5 µM | EKVX 35.7 µM | A498 > 100 µM | SF-295 > 100 µM | MDA-MB-231 > 100 µM | KM12 > 100 µM | COLO 205 > 100 µM | UO-31 88.5 µM | SF-268 > 100 µM | 786-0 > 100 µM

CCNC(=O)Nc1ccccn1
inactive: HCT-116 > 100 µM | OVCAR-4 > 100 µM | OVCAR-5 > 100 µM | HOP-62 > 100 µM | M14 > 100 µM | NCI-H460 > 100 µM | CAKI-1 > 100 µM | SNB-19 > 100 µM | OVCAR-3 > 100 µM | HCC 2998 > 100 µM | EKVX > 100 µM | A498 > 100 µM | SF-295 > 100 µM | MDA-MB-231 > 100 µM | KM12 > 100 µM | COLO 205 > 100 µM | UO-31 > 100 µM | SF-268 > 100 µM | 786-0 > 100 µM

C[n+]1ccc(/C2=C3\C=CC(=N3)/C(c3cc[n+](C)cc3)=c3/cc/c([nH]3)=C(\c3cc[n+](C)cc3)C3=N/C(=C(/c4cc[n+](C)cc4)C4C=CC2N4)C=C3)cc1
inactive: HCT-116 > 81.1 µM | OVCAR-4 > 70 µM | OVCAR-5 > 100 µM | HOP-62 > 100 µM | M14 > 100 µM | NCI-H460 32.9 µM | CAKI-1 > 100 µM | SNB-19 > 100 µM | OVCAR-3 > 95.5 µM | HCC 2998 84.7 µM | EKVX > 100 µM | A498 > 100 µM | SF-295 > 100 µM | MDA-MB-231 > 100 µM | KM12 35.9 µM | COLO 205 > 100 µM | UO-31 > 100 µM | SF-268 > 100 µM | 786-0 > 100 µM

COC(=O)c1cc(C(=CCC[C@H]2CC[C@@]3(C)C(CCC4C3CC[C@@]3(C)C4CC[C@@H]3C(C)CCCC(C)C)C2)c2cc(Cl)c(O)c(C(=O)OC)c2)cc(Cl)c1O (some centres undefined)
inactive: HCT-116 > 10 µM | OVCAR-4 > 10 µM | OVCAR-5 > 10 µM | HOP-62 > 10 µM | M14 > 10 µM | NCI-H460 > 10 µM | CAKI-1 > 10 µM | SNB-19 > 10 µM | OVCAR-3 > 10 µM | HCC 2998 > 10 µM | EKVX > 10 µM | SF-295 > 10 µM | MDA-MB-231 > 10 µM | KM12 > 10 µM | COLO 205 > 10 µM | SK-MEL-2 > 10 µM | UO-31 > 10 µM | SF-268 > 10 µM | 786-0 > 10 µM
